In ChEMBL document CHEMBL1201862, “PubChem BioAssay data set” (2004):
The source made the active and inactive calls.

How the values were obtained:
[1] = target: T1, Epstein-Barr nuclear antigen 1 (Epstein-Barr virus (strain B95-8) (HHV-4) (Human herpesvirus 4), UniProt P03211); assay: inhibition of EBV nuclear antigen 1 DNA binding – biochemical, fluorescence polarization, 1536-well, dose response (AID 2381); parameters: species or system human gammaherpesvirus 4;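 note: fluorescence polarization of a Cy5 DNA probe bound by EBNA-1 protein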
T1 sequence (P03211 whole entry): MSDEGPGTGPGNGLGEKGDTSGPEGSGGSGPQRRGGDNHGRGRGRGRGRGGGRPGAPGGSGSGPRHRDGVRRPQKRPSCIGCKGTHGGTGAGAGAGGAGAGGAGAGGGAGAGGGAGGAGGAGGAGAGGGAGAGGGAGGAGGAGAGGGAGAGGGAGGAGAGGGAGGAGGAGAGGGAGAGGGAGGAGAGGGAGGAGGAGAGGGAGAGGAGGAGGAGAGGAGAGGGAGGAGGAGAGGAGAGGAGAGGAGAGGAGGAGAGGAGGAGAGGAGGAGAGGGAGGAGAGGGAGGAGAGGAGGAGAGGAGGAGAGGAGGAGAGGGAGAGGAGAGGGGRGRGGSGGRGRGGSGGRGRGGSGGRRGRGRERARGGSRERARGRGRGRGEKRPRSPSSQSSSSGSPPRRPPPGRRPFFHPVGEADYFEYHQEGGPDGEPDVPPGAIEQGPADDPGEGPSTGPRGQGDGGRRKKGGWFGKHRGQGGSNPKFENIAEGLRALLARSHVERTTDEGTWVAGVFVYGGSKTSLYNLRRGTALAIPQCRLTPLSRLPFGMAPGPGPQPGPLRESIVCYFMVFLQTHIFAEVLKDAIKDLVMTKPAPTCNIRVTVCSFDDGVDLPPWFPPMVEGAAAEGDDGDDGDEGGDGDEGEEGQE

[2] = target: T2, Lytic switch protein BZLF1 (Epstein-Barr virus (strain B95-8) (HHV-4) (Human herpesvirus 4), UniProt P03206); assay: inhibition of BZLF1 ZTA DNA binding – biochemical, fluorescence polarization, Epstein-Barr virus, 1536-well, counter-screen for EBNA-1 inhibitor project, dose response (AID 2377); parameters: species or system human gammaherpesvirus 4;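 note: fluorescence polarization of Cy5-labelled ZRE DNA probe bound by purified Zta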
T2 sequence (P03206 whole entry): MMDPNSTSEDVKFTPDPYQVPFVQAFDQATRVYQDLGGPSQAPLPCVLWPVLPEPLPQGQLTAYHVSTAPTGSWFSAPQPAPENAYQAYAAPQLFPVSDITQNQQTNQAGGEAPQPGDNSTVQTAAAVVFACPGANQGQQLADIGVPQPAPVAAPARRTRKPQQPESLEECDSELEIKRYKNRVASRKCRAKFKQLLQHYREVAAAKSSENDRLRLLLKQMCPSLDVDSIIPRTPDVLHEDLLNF

[3] = target: T3, Zinc finger protein mex-5 (Caenorhabditis elegans, UniProt Q9XUB2); assay: potency of MEX-5 RNA-binding blockers – biochemical, C. elegans, fluorescence polarization, dose response (AID 1960)
T3 sequence (Q9XUB2 whole entry): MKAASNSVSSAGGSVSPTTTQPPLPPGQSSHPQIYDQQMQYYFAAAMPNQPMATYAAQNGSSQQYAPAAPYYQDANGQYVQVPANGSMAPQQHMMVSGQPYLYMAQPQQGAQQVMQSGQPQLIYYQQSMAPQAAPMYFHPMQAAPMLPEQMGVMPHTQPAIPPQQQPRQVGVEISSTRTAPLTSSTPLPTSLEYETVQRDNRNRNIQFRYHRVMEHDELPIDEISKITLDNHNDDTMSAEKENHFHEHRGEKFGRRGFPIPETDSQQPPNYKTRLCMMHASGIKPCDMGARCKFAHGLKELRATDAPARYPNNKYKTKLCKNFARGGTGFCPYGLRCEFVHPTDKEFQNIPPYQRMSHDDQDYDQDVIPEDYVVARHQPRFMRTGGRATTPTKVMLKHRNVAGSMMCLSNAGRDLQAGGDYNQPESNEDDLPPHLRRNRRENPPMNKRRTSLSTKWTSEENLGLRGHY

[4] = target: T4, RNA-binding protein pos-1 (Caenorhabditis elegans, UniProt G5EF15); assay: disruptors of C. elegans POS-1 RNA interaction – biochemical, fluorescence polarization, dose response (AID 1964);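 note: purified POS-1 fused to maltose binding protein made in E. coli; potency of compounds blocking POS-1 binding to fluorescent RNA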
T4 sequence (G5EF15 whole entry): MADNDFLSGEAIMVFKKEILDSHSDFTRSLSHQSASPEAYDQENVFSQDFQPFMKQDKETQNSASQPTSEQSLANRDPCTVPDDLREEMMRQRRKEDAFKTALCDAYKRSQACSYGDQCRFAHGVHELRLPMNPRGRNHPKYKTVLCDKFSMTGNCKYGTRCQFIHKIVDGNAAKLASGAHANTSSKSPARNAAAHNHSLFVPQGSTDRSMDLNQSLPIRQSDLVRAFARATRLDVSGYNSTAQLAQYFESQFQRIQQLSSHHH

Leucine aminopeptidase = target: T5, Leucine aminopeptidase (Plasmodium falciparum 3D7, UniProt Q8IL11); assay: P. falciparum M17LAP inhibitors, primary screen, biochemical, fluorogenic H-Leu-NHMec substrate, 1536-well (AID 1619); type: functional
T5 sequence (Q8IL11 whole entry): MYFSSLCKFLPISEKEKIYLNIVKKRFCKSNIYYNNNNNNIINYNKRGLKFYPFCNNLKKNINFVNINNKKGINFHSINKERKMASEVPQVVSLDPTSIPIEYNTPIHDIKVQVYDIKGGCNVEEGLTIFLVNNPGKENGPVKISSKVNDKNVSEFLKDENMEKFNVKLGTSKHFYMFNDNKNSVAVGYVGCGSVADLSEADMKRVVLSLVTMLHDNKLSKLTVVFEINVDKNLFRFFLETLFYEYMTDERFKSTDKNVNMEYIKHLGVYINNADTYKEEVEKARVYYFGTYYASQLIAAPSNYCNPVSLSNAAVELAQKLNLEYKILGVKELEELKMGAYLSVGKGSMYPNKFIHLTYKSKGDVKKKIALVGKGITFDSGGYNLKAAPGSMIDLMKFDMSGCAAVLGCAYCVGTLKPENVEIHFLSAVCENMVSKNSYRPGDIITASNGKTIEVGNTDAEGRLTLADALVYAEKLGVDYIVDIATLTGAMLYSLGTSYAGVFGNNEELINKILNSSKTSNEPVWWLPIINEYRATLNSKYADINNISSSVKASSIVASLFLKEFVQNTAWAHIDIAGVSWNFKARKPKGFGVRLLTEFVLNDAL

Ion channel NompC = Ion channel NompC (Danio rerio, UniProt Q7T1G6); assay: Fluorescence counterscreen assay for TRPML3 agonists: dose response cell-based high-throughput screening assay to identify agonists of the transient receptor potential channel N1 (TRPN1). [Related pubchem assays: 1526, 1424, 1448 ]; type: functional
Ion channel NompC, sequence (Q7T1G6 whole entry): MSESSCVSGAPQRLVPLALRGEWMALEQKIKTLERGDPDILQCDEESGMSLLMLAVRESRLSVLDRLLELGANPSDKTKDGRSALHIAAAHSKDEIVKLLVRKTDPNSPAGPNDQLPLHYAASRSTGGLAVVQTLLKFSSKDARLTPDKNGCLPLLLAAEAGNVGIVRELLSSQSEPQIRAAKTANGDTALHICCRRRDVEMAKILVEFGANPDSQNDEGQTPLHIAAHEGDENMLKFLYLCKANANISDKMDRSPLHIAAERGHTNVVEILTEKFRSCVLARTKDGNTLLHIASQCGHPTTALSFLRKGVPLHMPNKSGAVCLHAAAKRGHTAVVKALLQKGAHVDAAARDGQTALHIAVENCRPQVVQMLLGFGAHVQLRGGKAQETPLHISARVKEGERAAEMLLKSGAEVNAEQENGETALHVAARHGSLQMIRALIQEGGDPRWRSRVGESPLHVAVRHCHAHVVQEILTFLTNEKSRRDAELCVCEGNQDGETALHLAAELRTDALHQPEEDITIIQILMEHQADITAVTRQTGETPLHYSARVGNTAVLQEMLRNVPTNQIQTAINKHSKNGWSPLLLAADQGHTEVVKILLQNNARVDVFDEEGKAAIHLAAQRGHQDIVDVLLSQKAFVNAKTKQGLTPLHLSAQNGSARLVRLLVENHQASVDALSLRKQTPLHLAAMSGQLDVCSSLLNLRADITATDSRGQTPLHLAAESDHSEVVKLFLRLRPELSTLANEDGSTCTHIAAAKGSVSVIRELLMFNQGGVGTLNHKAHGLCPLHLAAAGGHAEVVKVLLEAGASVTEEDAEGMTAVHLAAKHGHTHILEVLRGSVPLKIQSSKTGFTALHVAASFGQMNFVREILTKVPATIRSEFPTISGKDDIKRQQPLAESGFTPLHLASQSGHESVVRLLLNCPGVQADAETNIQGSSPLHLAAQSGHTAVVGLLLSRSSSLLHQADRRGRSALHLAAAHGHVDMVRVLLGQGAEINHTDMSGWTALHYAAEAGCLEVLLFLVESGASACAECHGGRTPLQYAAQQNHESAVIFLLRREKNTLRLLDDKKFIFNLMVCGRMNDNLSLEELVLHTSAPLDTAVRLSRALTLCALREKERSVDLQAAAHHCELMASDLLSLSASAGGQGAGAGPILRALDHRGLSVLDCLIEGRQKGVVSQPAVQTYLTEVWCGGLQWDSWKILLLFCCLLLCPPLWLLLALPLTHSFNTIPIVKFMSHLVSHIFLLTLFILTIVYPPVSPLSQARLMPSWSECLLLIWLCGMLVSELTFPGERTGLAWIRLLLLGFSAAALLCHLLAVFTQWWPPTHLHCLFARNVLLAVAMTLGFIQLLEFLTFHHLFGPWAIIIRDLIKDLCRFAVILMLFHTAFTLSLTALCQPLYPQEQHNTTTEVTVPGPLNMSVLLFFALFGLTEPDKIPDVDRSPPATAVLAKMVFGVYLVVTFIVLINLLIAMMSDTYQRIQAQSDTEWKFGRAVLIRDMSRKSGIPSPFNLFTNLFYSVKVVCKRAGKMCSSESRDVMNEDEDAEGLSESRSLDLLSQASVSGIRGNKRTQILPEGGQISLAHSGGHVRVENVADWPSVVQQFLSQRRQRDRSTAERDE

Mucolipin-3 = target: T6, Mucolipin-3 (Homo sapiens, UniProt Q8TDD5); assay: Dose response cell-based high-throughput screening assay for agonists of the transient receptor potential channel ML3 (TRPML3). [Related pubchem assays: 1526, 1424, 1448 ]; type: functional
T6 sequence (Q8TDD5 whole entry): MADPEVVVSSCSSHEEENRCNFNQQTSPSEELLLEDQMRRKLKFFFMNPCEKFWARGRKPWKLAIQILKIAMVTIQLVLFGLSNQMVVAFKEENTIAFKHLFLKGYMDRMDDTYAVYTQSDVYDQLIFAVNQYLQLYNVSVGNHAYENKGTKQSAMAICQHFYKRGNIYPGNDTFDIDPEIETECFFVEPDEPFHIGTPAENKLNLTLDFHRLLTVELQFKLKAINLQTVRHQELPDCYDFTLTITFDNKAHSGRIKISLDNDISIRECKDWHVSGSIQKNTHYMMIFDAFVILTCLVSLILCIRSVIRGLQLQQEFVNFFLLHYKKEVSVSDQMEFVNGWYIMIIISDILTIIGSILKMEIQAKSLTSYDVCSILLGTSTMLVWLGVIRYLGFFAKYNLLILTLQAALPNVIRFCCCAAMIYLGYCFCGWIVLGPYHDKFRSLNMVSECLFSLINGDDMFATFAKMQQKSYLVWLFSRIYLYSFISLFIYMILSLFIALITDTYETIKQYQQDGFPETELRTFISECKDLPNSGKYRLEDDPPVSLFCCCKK

cells [5] = type: functional, cell-based
cells [6] = type: functional, cell-based; remark: listed apart in the source
[7] = target: FAD-linked sulfhydryl oxidase ALR (Homo sapiens, UniProt P55789); assay: ALR-catalysed DTT oxidation blockers – biochemical, H2O2 detection, luminescence, cherry-pick, dose response (AID 493248)
FAD-linked sulfhydryl oxidase ALR, sequence (P55789 whole entry): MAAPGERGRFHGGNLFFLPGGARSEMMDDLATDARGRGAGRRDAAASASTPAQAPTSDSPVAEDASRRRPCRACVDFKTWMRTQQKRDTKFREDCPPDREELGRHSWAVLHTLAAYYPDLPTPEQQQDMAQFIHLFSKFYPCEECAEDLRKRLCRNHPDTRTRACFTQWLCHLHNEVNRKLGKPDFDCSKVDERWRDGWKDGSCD

[8] = viability loss in human Jurkat cells – cell-based, luminescence, cytotoxicity control for P. falciparum gametocyte viability project, dose response (AID 1117277); type: functional;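 note: potency reflects loss of cellular ATP meaning fewer viable cells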
[9] = viability inhibitors of stage V gametocytes – luminescence, dose response (AID 1117278); type: functional, cell-based;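 note: gametocytes exposed to compound for 24 hours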
H4 = assay: Luminescence Cell-Based Dose Response HTS to Identify Activators of 5'UTR Stem-Loop Driven Prion Protein mRNA Translation in H4 Neuroglioblastoma Cells. [Related pubchem assays: 1829 (Project Summary), 1814 (Primary HTS)]; type: functional; settings: Homo sapiens
[10] = Luminescence Cell-Based Dose Confirmation HTS to Identify Activators of 5'UTR Stem-Loop Driven Alpha-Synuclein mRNA Translation in H4 Neuroglioblastoma Cells. [Related pubchem assays: 1829 (Project Summary), 1814 (Primary HTS)]; type: functional
[11] = viability loss of HPDE-C7K cells – cell-based, fluorescence, HTS, primary screen (AID 431); type: functional; settings: Homo sapiens
[12] = Luminescence Cell-Based Dose Response HTS to Identify Activators of Luciferase Translation or Activity in H4 […] Cells. [Related pubchem assays: 1829 (Project Summary), 1814 (Primary HTS)]; type: functional
[13] = HPDE-C7 pancreatic duct cell viability loss – fluorescence, HTS (AID 430); type: functional, cell-based; settings: Homo sapiens

Cc1ccc(NC(=O)CCn2c(=S)oc3ccccc32)cc1
IC50 [1]: 14.2 µM (not active) | IC50 [2]: > 111 µM (not active)

CN(C)c1ccc(/C=C(\C#N)C(=O)NCc2ccco2)cc1
EC50 [3]: 23.7 µM (active) | IC50 [1]: 15 µM (not active) | IC50 [2]: 32 µM (not active) | EC50 [4]: > 300 µM (not active)

Nc1cc(N)nc(SCC(=O)Nc2ccc3c(c2)OCCCO3)n1
IC50 (Leucine aminopeptidase): 14.4 µM (active)

CCCN(CCC)S(=O)(=O)c1ccc(C(=O)N2CCCc3ccccc32)cc1
EC50 (Ion channel NompC): > 29.9 µM (not active) | EC50 (Mucolipin-3): 1.33 µM (active)

NC(=O)c1cc(-c2ccccc2)sc1NC(=O)Cc1ccc(S(=O)(=O)N2CCOCC2)s1
IC50 [1]: > 5.47 µM (active) | IC50 [2]: > 111 µM (not active)

CC(C)CC1NC(=O)N(Cc2cc(=O)n3ccsc3n2)C1=O (centres undefined)
EC50 (cells [5]): > 350 µM (not active) | EC50 (cells [6]): > 350 µM (not active)

Cc1cccc(-c2noc(CN(C(C)C)S(=O)(=O)c3ccc(F)cc3)n2)c1
EC50 (Ion channel NompC): > 29.9 µM (not active) | EC50 (Mucolipin-3): 1.77 µM (active)

Cc1cccc(Nc2ncnc3[nH]cnc23)c1
AC50 [7]: 75.3 µM (active) | IC50 (Leucine aminopeptidase): 71.4 µM (active)

N#Cc1c(N)n(-c2ccc(O)cc2)c2nc3ccccc3nc12
IC50 [8]: > 83.4 µM (inactive) | IC50 [9]: > 109 µM (inactive)

CC1(C)Cc2c(c(N3CCOCC3)nc3snc(N)c23)CO1
EC50 (H4): > 120 µM (not active) | EC50 [10]: 40.9 µM (active) | EC50 [11]: 7.17 µM (active) | EC50 [12]: > 120 µM (not active) | EC50 [13]: 7.52 µM (active)
